Reference: the OligoGym collection
HELM strings list units from the 5' end as sugar, base in round brackets, then linkage (d deoxyribose, r ribose, m 2'-O-methyl, p phosphodiester). [sp] = phosphorothioate linkage

Columns and labels:
CTNNB1 [1] = assay: HEK293-TLR7, 100 nM ASO, then resiquimod
CTNNB1 [2] = assay: HEK293-TLR8, 100 nM ASO, then resiquimod

Substance | TLR7 signal (NF-kB luciferase) (% of resiquimod alone) (CTNNB1 [1]) | TLR8 potentiation (NF-kB luciferase) (fold of resiquimod alone) (CTNNB1 [2])
RNA1{m(U)[sp].m(A)[sp].m(G)[sp].m(C)[sp].m(G)[sp].d(T)[sp].d(G)[sp].d(T)[sp].d(C)[sp].d(T)[sp].d(G)[sp].d(G)[sp].d(A)[sp].d(A)[sp].d(G)[sp].m(C)[sp].m(U)[sp].m(U)[sp].m(C)[sp].m(C)}$$$$ | 60.3 | 1.56
RNA1{m(U)[sp].m(A)[sp].m(U)[sp].m(U)[sp].m(U)[sp].d(T)[sp].d(A)[sp].d(A)[sp].d(G)[sp].d(C)[sp].d(A)[sp].d(T)[sp].d(A)[sp].d(T)[sp].d(T)[sp].m(A)[sp].m(A)[sp].m(A)[sp].m(A)[sp].m(A)}$$$$ | 62.3 | 2.61
RNA1{m(U)[sp].m(C)[sp].m(A)[sp].m(A)[sp].m(A)[sp].d(G)[sp].d(T)[sp].d(A)[sp].d(T)[sp].d(A)[sp].d(T)[sp].d(A)[sp].d(C)[sp].d(C)[sp].d(T)[sp].m(G)[sp].m(U)[sp].m(U)[sp].m(U)[sp].m(U)}$$$$ | 64.4 | 4.27
RNA1{m(U)[sp].m(C)[sp].m(A)[sp].m(A)[sp].m(U)[sp].d(G)[sp].d(G)[sp].d(G)[sp].d(A)[sp].d(G)[sp].d(A)[sp].d(A)[sp].d(T)[sp].d(A)[sp].d(A)[sp].m(A)[sp].m(G)[sp].m(C)[sp].m(A)[sp].m(G)}$$$$ | 68.9 | 3.97
RNA1{m(U)[sp].m(C)[sp].m(A)[sp].m(U)[sp].m(U)[sp].d(A)[sp].d(T)[sp].d(A)[sp].d(T)[sp].d(T)[sp].d(T)[sp].d(A)[sp].d(C)[sp].d(T)[sp].d(A)[sp].m(A)[sp].m(A)[sp].m(G)[sp].m(C)[sp].m(U)}$$$$ | 65.5 | 4.22
RNA1{m(U)[sp].m(C)[sp].m(C)[sp].m(A)[sp].m(U)[sp].d(C)[sp].d(C)[sp].d(C)[sp].d(T)[sp].d(T)[sp].d(C)[sp].d(C)[sp].d(T)[sp].d(G)[sp].d(T)[sp].m(U)[sp].m(U)[sp].m(A)[sp].m(G)[sp].m(U)}$$$$ | 96.4 | 4.57
RNA1{m(U)[sp].m(C)[sp].m(U)[sp].m(A)[sp].m(U)[sp].d(T)[sp].d(T)[sp].d(G)[sp].d(T)[sp].d(C)[sp].d(T)[sp].d(A)[sp].d(T)[sp].d(T)[sp].d(T)[sp].m(U)[sp].m(A)[sp].m(U)[sp].m(A)[sp].m(C)}$$$$ | 92.8 | 4.61
RNA1{m(U)[sp].m(C)[sp].m(U)[sp].m(U)[sp].m(A)[sp].d(T)[sp].d(A)[sp].d(A)[sp].d(T)[sp].d(T)[sp].d(A)[sp].d(T)[sp].d(T)[sp].d(G)[sp].d(C)[sp].m(A)[sp].m(A)[sp].m(G)[sp].m(U)[sp].m(G)}$$$$ | 110 | 4.58
RNA1{m(U)[sp].m(G)[sp].m(C)[sp].m(U)[sp].m(U)[sp].d(A)[sp].d(T)[sp].d(T)[sp].d(T)[sp].d(T)[sp].d(A)[sp].d(A)[sp].d(G)[sp].d(C)[sp].d(A)[sp].m(U)[sp].m(A)[sp].m(U)[sp].m(U)[sp].m(A)}$$$$ | 66.4 | 2.73
RNA1{m(U)[sp].m(G)[sp].m(G)[sp].m(C)[sp].m(A)[sp].d(G)[sp].d(G)[sp].d(C)[sp].d(T)[sp].d(C)[sp].d(A)[sp].d(G)[sp].d(T)[sp].d(G)[sp].d(A)[sp].m(U)[sp].m(G)[sp].m(U)[sp].m(C)[sp].m(U)}$$$$ | 50.4 | 1.73
RNA1{m(U)[sp].m(G)[sp].m(U)[sp].m(G)[sp].m(G)[sp].d(C)[sp].d(T)[sp].d(T)[sp].d(G)[sp].d(T)[sp].d(C)[sp].d(C)[sp].d(T)[sp].d(C)[sp].d(A)[sp].m(G)[sp].m(A)[sp].m(C)[sp].m(A)[sp].m(U)}$$$$ | 47.1 | 1.57
